This is an account of results in PubChem BioAssay AID977621 (Broad Institute, 2014).

The test system of this assay is E. coli wild-type GFP strain growth, fluorescence, 24 h. Briefly: wild-type E. coli growth inhibition versus H69 humanized strain – H69 mutant RFP, wild-type GFP, cherry-pick, dose response (AID 977621).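 Also: wild-type GFP and H69 mutant RFP strains grown together 50/50 in each well.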
Where [1] appears, read: E. coli mixed culture, 24 h, measured here: total growth OD600, test 2.

Inconclusive results are not listed. Activity calls are given as the source filed them.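 The calls were made as follows: active = Wild-type ribosome reporter drop at least double the humanized mutant ribosome reporter drop, growth loss under a set limit; inconclusive = no clear call, values can overlap the other calls; inactive = the rest.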

The AC50 is the midpoint of the concentration-response curve, whichever way the signal moves. For `O=C(O)c1ccc(S(=O)(=O)N(Cc2ccc(F)cc2)C2CCCCC2)cc1`, the AC50 is > 100 µM (inactive). Under setting [1], this compound returned an AC50 of 30.2 µM. On to `COc1ccc(-c2csc(NC(=O)c3ccoc3C)n2)cc1`, for which the AC50 is > 100 µM (inactive). Further, the concentration at half-maximal activity (AC50) under setting [1] was found to be 48.8 µM. For `Fc1ccc(-c2nnc(-c3ccc4ccccc4c3)o2)cc1` the same measures were > 100 µM (inactive) and above 100 µM. Under setting [1], `CC(=O)Nc1ccc(S(=O)(=O)Nc2cccc(-c3nc4cc(C)ccc4o3)c2)cc1` returned an AC50 above 100 µM. Consider `Cc1c(-c2cccc(Cl)c2)nc2ccccc2c1C(=O)N1CCC2(CC1)OCCO2`, for which the AC50 was > 100 µM (inactive). Also, the concentration at half-maximal activity (AC50) (measured here: total growth OD600, test 2) is above 100 µM. For `CC(C)(C)c1ccc(-c2noc(CCC(=O)NCc3ccco3)n2)cc1`, the AC50 under setting [1] is above 100 µM.

Regarding `COc1cc2[nH]c(=S)nc(NCCc3ccc(C)cc3)c2cc1OC`, the AC50 is > 100 µM (inactive).

With `C[n+]1ccccc1/C=C/c1cc(Br)ccc1O`, the AC50 was > 100 µM (inactive). Consider `COC(=O)[C@H](Cc1c[nH]c2ccccc12)NCc1cccc(B(O)O)c1`, for which the AC50 is > 100 µM (inactive). Also, the AC50 under setting [1] is above 100 µM. On to `O=C(Nc1cccc(Cl)c1)N1C[C@H]2[C@@H](c3ccccc31)[C@H](CO)N2CC1CCCCC1`, for which the AC50 is > 100 µM (inactive). As for `O=C(Cc1ccc(NC(=O)C2CCCN(C(=O)CCc3ccccc3)C2)cc1)Nc1cccc(C(=O)N2CCCC2)c1` (centres undefined), the AC50 was > 100 µM (inactive). Besides, the AC50 under setting [1] is above 100 µM. `COc1ccc(NC(=O)Nc2cccc3c2O[C@@H](CN(C)S(=O)(=O)c2ccc(Cl)cc2)[C@H](C)CN([C@H](C)CO)C3=O)cc1`: the AC50 is > 100 µM (inactive).

Regarding `CCOC(=O)C(C)Sc1nc(N2CCOCC2)c2c(c1C#N)CC(C)(C)OC2` (centres undefined), the AC50 under setting [1] is above 100 µM.

For `Cc1cc(C(=O)OCC(=O)Nc2cccc(S(N)(=O)=O)c2)c2ccccc2n1`, the AC50 under setting [1] is above 100 µM. In the case of `COc1cc(NC(=O)CSCc2ccc(Cl)cc2Cl)c(C(=O)O)cc1OC`, the AC50 is > 100 µM (inactive). Under setting [1], this compound had an AC50 above 100 µM. Take `CN1OC[C@@H]2CN(C(=O)c3ccco3)[C@H](c3ccc(-c4ccc(C#N)cc4)cc3)C[C@@H]21`: the AC50 under setting [1] is above 100 µM. For `CSCCC(=O)Nc1nc(-c2ccccn2)cs1`, the AC50 was > 100 µM (inactive). In the case of `CCCC[n+]1ccn(-c2nc3ccccc3nc2[N-]S(=O)(=O)c2cccs2)c1`, the AC50 was > 100 µM (inactive). The compound further registered an AC50 under setting [1] above 100 µM. As for `CCOc1ccc(OCc2cccc(C(=O)O)c2)cc1`, the AC50 is > 100 µM (inactive). Regarding `Cc1cc(C(=O)COC(=O)c2ccc(O)cc2)c(C)n1CC(F)(F)F`, under setting [1], the AC50 is above 100 µM. Turning to `COc1ccc(CC(=O)NC(C)c2ccc3ccccc3c2)cc1` (centres undefined), the AC50 was > 100 µM (inactive).

Under setting [1], `Cc1ccc(N2C(=S)NC3c4cc(Cl)ccc4OC2(C)C3C(=O)N(C)C)cc1` (centres undefined) had a half-maximal activity concentration (AC50) above 100 µM. As to `Nc1ccc(C(=O)Nc2ccc3nc(-c4ccncc4)[nH]c3c2)cc1`, the AC50 is > 100 µM (inactive).

For the compound `COc1ccc(CNc2ncnc3cc(OC)c(OC)cc23)cc1OC`, the AC50 was > 100 µM (inactive).

With `Cc1cc(OCCCCOc2ccc(S(N)(=O)=O)c(C)c2)ccc1S(N)(=O)=O`, the AC50 is > 100 µM (inactive). In addition, the concentration at half-maximal activity (AC50) under setting [1] worked out at 49.4 µM. As to `COc1ccc(-c2noc(=O)n2Cc2ccccc2Cl)cc1`, the AC50 was > 100 µM (inactive).

Turning to `CCC(=O)N(CCC(c1ccco1)C(C)C)Cc1ccccc1` (centres undefined), the AC50 was > 100 µM (inactive). As for `CCc1cccc(NC(=O)CCC(=O)N2CCSc3ccccc32)c1`, the AC50 was > 100 µM (inactive). Further, the AC50 under setting [1] was 47.6 µM.

Take `O=C(Nc1ccc(Cl)cn1)c1ccc([N+](=O)[O-])o1`: under setting [1], the AC50 is above 100 µM. Turning to `COC(=O)CNC(=O)COC(=O)c1ccc(Cl)nc1`, the concentration at half-maximal activity (AC50) under setting [1] is above 100 µM. The same measure, in the same setting: in the case of `Cc1cc(Cl)ccc1OCCCC(=O)OCC(N)=O` it was above 100 µM. Regarding `Cc1cc(C)c(OCC(=O)OCC(=O)N2CCc3ccccc3C2)c(C)c1`, the AC50 is > 100 µM (inactive). Under setting [1], the AC50 was above 100 µM. For the compound `Cc1onc(-c2c(F)cccc2Cl)c1C(=O)c1ccccc1O`, the half-maximal activity concentration (AC50) under setting [1] is 42.4 µM.

The compound `O=C1c2ccccc2C(c2nnnn2Cc2ccccc2)N1Cc1cccc(F)c1` (centres undefined) yielded an AC50 under setting [1] above 100 µM. As for `Fc1cccc(Cc2noc(CN3CCCCC3CCc3ccccn3)n2)c1` (centres undefined), the AC50 is > 100 µM (inactive). The AC50 under setting [1] was above 100 µM. `COc1cc(C(=O)NCCc2c[nH]c3ccccc23)ccc1OCc1c(C)noc1C` came in with an AC50 under setting [1] above 100 µM. The same measure, in the same setting: in the case of `COc1ccc(NC(=O)CN(c2ccccc2OC)S(=O)(=O)c2cccs2)cc1Cl` it was above 100 µM. As for `CCn1nc(C(=O)OCc2cccc(S(=O)(=O)N(C)C)c2)c2ccccc2c1=O`, the AC50 is > 100 µM (inactive). For the same compound, the AC50 under setting [1] is above 100 µM. On the same counts, the results for `NS(=O)(=O)c1cc(C(=O)OCC(=O)Nc2ccccc2[N+](=O)[O-])ccc1Cl` are > 100 µM (inactive) and above 100 µM. For the compound `CCN(C(=O)COC(=O)c1ccc([N+](=O)[O-])o1)c1cccc2ccccc12`, the AC50 is > 100 µM (inactive).

The compound `Cc1ccc(C(=O)NCC(=O)OCC(=O)Nc2cccc(S(=O)(=O)N3CCCC3)c2)cc1C` registered an AC50 under setting [1] above 100 µM. Regarding `CC1CCN(c2ccc3nnc(CCC(=O)Nc4cccc(F)c4)n3n2)CC1`, the AC50 is > 100 µM (inactive). This compound gave an AC50 under setting [1] above 100 µM. With `CC(NC(=O)c1ccncc1)c1ccc(Cl)cc1Cl` (centres undefined), the half-maximal activity concentration (AC50) under setting [1] was above 100 µM. `Cc1cc(C(=O)c2ccc3ccccc3c2)c(C)o1`: the AC50 is > 100 µM (inactive). Still for that read-out and setting: for `COc1cccc(OC)c1OCCCOc1cccc2cccnc12` the value was > 100 µM (inactive); for `CCOc1ccc(S(=O)(=O)Nc2ccc(S(=O)(=O)N3CCCC3)cc2)cc1`, > 100 µM (inactive). Turning to `COc1ccc(CC(=O)Oc2ccc(C)cc2C)cc1`, under setting [1], the AC50 is above 100 µM. Take `O=C(Nc1ccc2c(c1)OCO2)c1cc(-c2ccncc2)nc2ccccc12`: the AC50 was > 100 µM (inactive).

For `CC(C)(C)NC(=O)C(c1ccncc1)N(Cc1ccc(F)cc1)C(=O)c1ccc(-c2ccccc2)[nH]1` (centres undefined), the AC50 under setting [1] was above 100 µM. Under setting [1], `CCCn1c(C(C)Nc2nc(-c3ccc(C)cc3)cs2)nc2ccccc21` (centres undefined) displayed an AC50 above 100 µM.

The compound `COc1ccc(CNC(=O)Cc2cn(C)c3ccccc23)c(OC)c1` showed an AC50 under setting [1] above 100 µM. Same read-out and setting: for `O=C(CSCc1c(Cl)cccc1Cl)NCc1ccccn1` the value was above 100 µM; for `COc1ccc(CCCc2nc3ccccc3[nH]2)cc1`, above 100 µM.

With `COc1ccc(Cn2c(=O)c3[nH]cnc3n(-c3ccc(C)cc3)c2=O)cc1`, the AC50 was > 100 µM (inactive). Still for that read-out and setting: in the case of `COc1ccc(C(=O)N(c2ccccc2)c2nccc3ccccc23)cc1OC` it was > 100 µM (inactive); in that of `CCCN(CC1CC1)C(=O)CSc1ncnc2sccc12`, > 100 µM (inactive). Take `O=C(Nc1cccnc1)c1ccc([N+](=O)[O-])o1`: the AC50 is > 100 µM (inactive). Under setting [1], `Cc1ccsc1C(=O)C1CCCN(Cc2cc(F)ccc2-n2cccn2)C1` (centres undefined) registered an AC50 above 100 µM. Take `Cn1cnc(CCNC(=O)C[C@H]2CC[C@@H]3[C@H](COC[C@H](O)CN3C(=O)Nc3ccc(Cl)cc3)O2)c1`: the AC50 was > 100 µM (inactive).
